Assay results published in patent publication US20250352555A1, “METHOD OF INCREASING IMMUNE CELL ACTIVATION AND/OR TREATING CANCER USING DIBENZOXAZEPINONES” (VASCULAR THERAPEUTICS PTY LTD, priority 2022, published 2025).
“And” between values parts separate entries of the source, which are not always exact repeats. Identical values can stand only once. Like-named read-outs stand apart in the source and are kept apart here.

Key:
MeWo cells = assay: Migration assay (scratch), MeWo; assay type: cell-based, human; settings: 1 μM, 48 h, with greater potency than SCH772984
Method: Migration assays. Cells were grown in medium containing 10% FBS in 6-well plates. The following day the cells were scratched with a sterile toothpick, washed with PBS, and incubated in medium containing 10% FBS and vehicle, BT2 or SCH772984 at 1 μM. At 0, 24 h and 48 h the cells were photographed under a 4× objective using an Olympus CKX41 microscope. To assess the effect of BT2 on melanoma cell migration, A375 and MeWo cells were incubated with 1 μM of BT2 or SCH772984, and A375 and MeWo migration into the denuded zone was quantified after 24 or 48 h, respectively.

A375 cells = assay: Apoptosis, flow cytometry with Annexin V-FITC, A375; assay type: cell-based, human; settings: 1 μM, 24 h
Method: Flow cytometry with Annexin V-FITC. Cells were seeded into 6 well plates in normal culture medium containing 10% FBS. After culturing overnight, the cells were incubated in complete medium containing vehicle, BT2 or SCH772984 at 1 μM and left for 24 h. The culture medium was removed and the cells were washed with PBS. Accutase (Stem Cell Technologies, cat. no. 07920) was used to detach the cells. The cells were then washed and centrifuged at 300 g for 5 min and resuspended at 1×10^6 cells/ml in 500 μl of 1× binding buffer (Annexin V-FITC Apoptosis Staining/Detection Kit, Abcam, cat. no. ab14085). The cells were transferred to 12×75 mm tubes and annexin V-FITC/propidium iodide (PI) was added and incubated for 5 min at 22° C. protected from light. Stained cell suspensions were analyzed by flow cytometry using a BD LSRFortessa X20.
The morphology of A375 and MeWo cells exposed to 1 μM of BT2 or SCH772984 for 24 h was also assessed.

CD68 = assay: Immunohistochemistry of B16F10 tumors (Day 17), CD68; assay type: in vivo, mouse; settings: B16F10 tumors Day 17, 200 mg/kg i.p.
Text: Immunohistochemical staining and analyses. Rabbit monoclonal anti-CD3 (cat. no. ab16669; mouse, rat and human reactive), rabbit monoclonal anti-PD-1 (cat. no. ab214421), rabbit monoclonal anti-CD68 (cat. no. ab125212) antibodies were obtained from Abcam, rabbit monoclonal anti-phospho-ERK (Thr^202/Tyr^204) (cat. no. CST4370), rabbit monoclonal total ERK (cat. no. CST4695), antibodies were obtained from Cell Signaling Technology. Rabbit polyclonal anti-PD-L1 (cat. no. PA5-20343) antibody was obtained from ThermoFisher.
Formalin fixed, paraffin embedded sections were prepared from tumors. Heat-induced epitope retrieval was applied to all deparaffinized sections (4 μm sections on Superfrost slides) with citrate buffer, pH 6.0 for 5 min at 110° C. Sections were blocked with Dual Endogenous Enzyme Block (DAKO, S2003) for 10 min and then with 2% skim milk for 20 min. […] Integrated optical density (IOD) or area of positive staining (red chromagen) was assessed using Image-Pro Plus software (Cybernetics, Bethesda, MD, USA). Positive staining was the average of quantitation in 4-8 fields of view under 20× or 40× objectives.
Immunohistochemical analysis was performed on B16F10 tumors (Day 17) from BT2- or vehicle-treated mice with antibodies to CD68. IOD and tissue area were assessed using Image-Pro Plus and the IOD/μm^2 was determined.

[1] = Systemic pharmacokinetics after oral (PO) and intraperitoneal (IP) administration; assay type: in vivo; settings: male, CD-1, mouse, plasma, 30 mg/kg, male CD-1 mice; for bioavailability: PO, read-out: relative bioavailability
Method: Systemic pharmacokinetics after oral (PO) and intraperitoneal (IP) administration. Male CD-1 mice were injected with BT2 in Formulation 1, Formulation 2 or Formulation 3 (Table 4) and blood was collected after 0.083, 0.25, 0.5, 1, 2, 4, 8 and 24 h. BT2 was given PO or IP injection.
Approximately 110 μl blood samples were collected (n=3/time point, 3 mice/group) into tubes with EDTA-K2 anticoagulant. All blood samples were put on wet ice prior to centrifuging (6000 g, 4° C. for 5 min) to obtain plasma, which were stored at −70° C. or dry ice until analysis.
Plasma samples were analysed by LC-MS/MS (SCIEX ExionLC)-MS/MS (Triple Quad 6500+ With Analyst 1.7.1 AB Sciex). HPLC was performed using a Waters Acquity UPLC HSS T3 1.8 μm, 2.1×50 mm column with Mobile Phase A: H2O-0.025% FA+1 mM NH4OAc and Mobile Phase B: MeOH-0.025% FA+1 mM NH4OAc and injection volume 3 μl.
LC-MS/MS detection was performed for BT2 in plasma of mice given BT2 either by oral gavage (PO) or intraperitoneal (IP) injection. Plasma samples were processed (protein precipitation method used) and injected into LC-MS/MS (SCIEX ExionLC coupled with Triple Quad 6500+).

CCOC(=O)Nc1ccc2c(c1)C(=O)N(CC)c1ccccc1O2 [BT2, (10-ethyl-11-oxo-10,11-dihydro-dibenzo[b,f][1,4]oxazepin-2-yl)-carbamic acid ethyl ester]
migration into the denuded zone (MeWo cells): suppressed melanoma migration | apoptosis (Annexin V-FITC+ PI−) (A375 cells): increased apoptosis | CD68 levels in the tumors (IHC) (CD68): reduced levels of CD68 | AUC(0-t) ([1]; ip, Formulation 1 (G2)): 1440 ng·h/mL and 4.41 µM·h | Cmax ([1]; ip, Formulation 1 (G2)): 1070 ng/mL and 3.29 µM | Tmax ([1]; ip, Formulation 1 (G2)): 15 min | half-life ([1]; ip, Formulation 1 (G2)): 523 min | AUC(0-t) ([1]; ip, Formulation 3 (G6)): 1180 ng·h/mL and 3.62 µM·h | Cmax ([1]; ip, Formulation 3 (G6)): 2.59 µM and 846 ng/mL | Tmax ([1]; ip, Formulation 3 (G6)): 30 min | half-life ([1]; ip, Formulation 3 (G6)): 505 min | bioavailability ([1]; po, Formulation 1 (G1)): 13.1% | AUC(0-t) ([1]; po, Formulation 1 (G1)): 189 ng·h/mL and 0.579 µM·h | Cmax ([1]; po, Formulation 1 (G1)): 177 nM and 57.9 ng/mL | Tmax ([1]; po, Formulation 1 (G1)): 15 min | bioavailability ([1]; po, Formulation 3 (G5)): 28.8% | AUC(0-t) ([1]; po, Formulation 3 (G5)): 340 ng·h/mL and 1.04 µM·h | Cmax ([1]; po, Formulation 3 (G5)): 53.7 ng/mL and 165 nM | Tmax ([1]; po, Formulation 3 (G5)): 60 min
